# Source: patent publication US20250032569A1, “COMPOSITION, IN PARTICULAR COSMETIC FORMULATION, COMPRISING A VERBASCOSIDE EXTRACT” (MEDENA AG, priority 2021, published 2025)
# Key:
# [1] = SPF calculated by modified Sayre method; type: physicochemical
# Text: In the following Table 20, there are SPF values obtained in vitro spectrophotometrically, which have been calculated by a classical Sayre method (Sayre, R M; Agin, P P; LeVee, G J; Marlowe, E. A comparison of in vivo and in vitro testing of sunscreening formulas, Photochem. Photobiol. 1979, 29, 559-566) and modified Sayre method, which gives results similar to those obtained in the in vivo tests recommended by COLIPA.
# • (1) For water insoluble chemical filters, the modified Sayre method gives results close to those calculated by Simulator-Calculator (BASF) and the in vivo tests. The Simulator-Calculator uses the modified Sayre method assuming an exponentiation equal to 0.827 (X^0.827). • (2) For water soluble natural filters, the same modified Sayre method would give results close to those obtained by the in vivo tests (predicted by Simulator-Calculator). Examples of Cosmetic Compositions with Fully Natural Sun Protective Factors • 1. Sun protective lotion SPF 50+, high UV-A protection • 2. Sun protective cream SPF 50+, high UV-A protection • 3. Sun protective serum for pregnant and milking women SPF 50+, high UV-A protection • 4. Sun protective milk for babies SPF 50+, high UV-A protection • 5. Sun protective lotion SPF 20-30, high UV-A protection for people with highly sensitive skin E. Analysis of Sun Protective Parameters of Two Lotions and Cream Containing Lippia citriodora Extract with 40% of Verbascoside.
# [2] = In vitro spectrophotometric SPF calculated by the Sayre equation (Eq. 1); type: physicochemical
# Experimental: Each sample (1 ml) was placed in a 1 cm quartz cell. The absorbance was measured between 250-600 nm at an interval of every 1 nm using a Varian UV/Vis spectrophotometer (Cary 50 Scan). The following parameters were measured and calculated for each sample assuming standard application to the skin—2 mg/cm^2: • the SPF values. • the critical wavelength λC • the UVA/UVB ratio 1. […]
# Each sample (1 ml) was placed in a 1 cm quartz cell. The absorbance was measured between 250-600 nm at an interval of every 1 nm using a Varian UV/Vis spectrophotometer (Cary 50 Scan). The following parameters were measured and calculated for each sample assuming standard application to the skin—2 mg/cm^2: • the SPF values. • the critical wavelength λC • the UVA/UVB ratio
# The SPF values in vitro were calculated according to the method described by Sayre et al., (Sayre, R M; Agin, P P; LeVee, G J; Marlowe, E. A comparison of in vivo and in vitro testing of sunscreening formulas, Photochem. Photobiol. 1979, 29, 559-566). The calculation was done using Equation 1: […]
# where Ss(λ) is the spectral irradiance, Ser(λ) is the CIE erythema action spectrum and T(λ) is the transmission of the sunscreen. The values of Ss(λ) and Ser(λ) were taken from the literature (B. L. Diffey, J. Robson. A new substrate to measure sunscreen protection factors throughout the ultraviolet spectrum, J. Soc. Cosmet. Chem. 1989, 40, 127-133). […]
# SPF values were calculated using Eq. 1 for sun protective cosmetics applied at 2 mg/cm^2 (standard application).
# The same methods and equations as in the case of plant extracts were applied.
# Solutions of sunscreens at concentrations 0.001% were prepared in duplicate and UV-visible absorption spectra were recorded over the range of 250-600 nm (FIG. 1). On the basis of these spectra, the transmission of the sunscreen (T) was found from monochromatic absorbance values at wavelength λ: T=10^−A(λ).
# The SPF in vitro was calculated according to the method described by Sayre et al., (Sayre, R M; Agin, P P; LeVee, G J; Marlowe, E. A comparison of in vivo and in vitro testing of sunscreening formulas, Photochem. Photobiol. 1979, 29, 559-566) following equation 1: […]
# where Ss(λ) is the spectral irradiance, Ser(λ) the CIE erythema action spectrum and T(λ) the trans-mission of the sunscreen. Data for Ss(λ) and Ser(λ) are available in the literature (B. L. Diffey, J. Robson. A new substrate to measure sunscreen protection factors throughout the ultraviolet spectrum, J. Soc. Cosmet. Chem. 1989, 40, 127-133).
# The SPF values were calculated using Eq 1 with the application conditions 2 mg/cm^2 (Standard application recommended by the European Agency).
# The SPF value for lotions were calculated using Eq. 1 for three application conditions at 2 mg/cm^2 (standard application), 2.5 mg/cm^2 and 3 mg/cm^2. In the same Table 22, critical wavelength and the UVA/UVB ratios are shown.
# [3] = Photo-stability under solar imitating UVA+UVB irradiation; type: physicochemical; details: absorption spectra without and after up to 40 min irradiation
# [4] = UVA/UVB ratio from absorption spectra (Eq. 3) and Boots UVA Star Rating; type: physicochemical; details: for ratio UVA/UVB: chemical sunscreen, no concentration stated
# Experimental: Critical Wavelength (λC) and the UVA/UVB ratios were also calculated from the absorption spectra and were collected in Table 2. […] According to these International indications, aqueous solutions of Haberlea rhodopensis with different concentrations of myconoside can be attributed to the group of good protection (2 UVA Star Rating).
# In order to further characterize solutions as skin photo-protectors from UVA, the UVA/UVB ratio was calculated using Eq. 3: […]
# In order to characterize the ability of creams to protect skin against UVA the UVA/UVB ratio was calculated using Eq. 3: […]
# [5] = Critical wavelength (λC) from absorption spectra (Eq. 2); type: physicochemical; details: for critical wavelength: chemical sunscreen, no concentration stated
# Experimental: The Critical Wavelength λC is the wavelength, where the area under the absorbance spectrum for the irradiated product from 290 nm to λC is equal to 90% of the integral value of the absorbance spectrum from 290 to 400 nm and was calculated using Eq. 2:
# where A (λ)=monochromatic absorbance values at wavelength λ. The critical wavelength was determined for all samples in order to assess a degree of UVA protection. In cases where the critical wavelength is lower than 370 nm, the protection from UVA is less evident.
# The Critical Wavelength λC value for the test product was defined as that wavelength where the area under the absorbance spectrum of the sample from 290 nm to λC is 90% of the integral of the absorbance spectrum from 290 to 400 nm and is calculated using Eq. 2:
# [formula] • A(λ)=monochromatic absorbance values at wavelength λ
# [6] = Solubility of chemical UV filters
# [7] = UV filter 0.5% in sun protective cosmetic
# [8] = UV filter 1.0% in sun protective cosmetic
# [9] = UV filter 2.5% in sun protective cosmetic
# [10] = UV filter 5% in sun protective cosmetic
# [11] = UV filter 10% in sun protective cosmetic
# [12] = UV filter 0.5% in sun protective cosmetic (Table 20)
# [13] = UV filter 1.0% in sun protective cosmetic (Table 20)
# [14] = UV filter 2.5% in sun protective cosmetic (Table 20)
# [15] = chemical UV filter 0.5% in sun protective solution (Tables 12-19)
# [16] = chemical UV filter 1% in sun protective solution (Tables 12-19)
# [17] = chemical UV filter 2.5% in sun protective solution (Tables 12-19)
# [18] = chemical UV filter 5% in sun protective solution (Tables 12-19)
# [19] = chemical UV filter 10% in sun protective solution (Tables 12-19)
# [20] = chemical UV filter 0.5% in sun protective solution
# [21] = chemical UV filter 1% in sun protective solution
# [22] = chemical UV filter 2.5% in sun protective solution
# [23] = chemical UV filter 5% in sun protective solution
# [24] = chemical UV filter 10% in sun protective solution
Compound,"SPF values calculated by Modified Sayre [1, 7]","SPF values calculated by Modified Sayre [1, 8]","SPF values calculated by Modified Sayre [1, 9]","SPF values calculated by Modified Sayre [1, 10]","SPF values calculated by Modified Sayre [1, 11]","SPF values calculated by the Sayre equation [2, 12]","SPF values calculated by the Sayre equation [2, 13]","SPF values calculated by the Sayre equation [2, 14]","SPF values [2, 15]","SPF values [2, 16]","SPF values [2, 17]","SPF values [2, 18]","SPF values [2, 19]","UVA/UVB [4, 20]","UVA/UVB [4, 21]","UVA/UVB [4, 22]","UVA/UVB [4, 23]","UVA/UVB [4, 24]",ratio UVA/UVB [4],"Critical wavelength (λC) [5, 20] [nm]",other results
CCCCC(CC)COc1ccc(-c2nc(-c3ccc(OC)cc3)nc(-c3ccc(OCC(CC)CCCC)cc3O)n2)c(O)c1 (stereo not drawn) [Bis-ethylhexyloxyphenol methoxyphenyl triazine],4.2,7.5,16.1,29,50,4.8,19,93,5.7,25,60,89,107,0.50,0.50,0.50,0.50,0.50,0.50,365,"SPF ([2]; chemical UV filter 1.5%): 60; SPF ([2]; chemical UV filter 2.0%): 89; Photo-stability to solar imitating UVA+UVB irradiation [3]: HIGHLY unstable; Critical wavelength (λC) [5, 21]: 365 nm; Critical wavelength (λC) [5, 22]: 365 nm; Critical wavelength (λC) [5, 23]: 365 nm; Critical wavelength (λC) [5, 24]: 365 nm; critical wavelength [5]: 365 nm"
"CCCCCCCCCCCCc1cc(C)cc(-n2nc3ccccc3n2)c1O [benzotriazolyl dodecyl p-cresol, Benzotriazolyl dodecyl p-cresol]",2.0,3.1,5.4,8.3,12.7,2.1,5,29,2.4,6,41,105,157,0.62,0.62,0.62,0.62,0.62,0.62,363,"SPF values calculated by Modified Sayre ([1]; UV filter 20% in sun protective cosmetic): 19; Solubility in water [6]: insoluble in water; SPF values calculated by the Sayre equation ([2]; UV filter 5% in sun protective cosmetic (Table 20)): 91; SPF values calculated by the Sayre equation ([2]; UV filter 10% in sun protective cosmetic (Table 20)): 132; Critical wavelength (λC) [5, 21]: 363 nm; Critical wavelength (λC) [5, 22]: 363 nm; Critical wavelength (λC) [5, 23]: 363 nm; Critical wavelength (λC) [5, 24]: 363 nm; critical wavelength [5]: 363 nm"
